Data: PubChem BioAssay (NCI)
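Abbreviation: GI50, concentration required for 50% inhibition of growth. TGI: concentration producing complete growth inhibition.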

What was measured:
Experiment in all cases: NCI tumour cell line growth inhibition, 384-well format
786-0 renal = test system: 786-0 renal
A498 renal = test system: A498 renal
ACHN renal = test system: ACHN renal
BT-549 breast = test system: BT-549 breast
CCRF-CEM leukemia = test system: CCRF-CEM leukemia
COLO 205 colon = test system: COLO 205 colon
DU-145 prostate = test system: DU-145 prostate
EKVX NSCLC = test system: EKVX NSCLC
HCC-2998 colon = test system: HCC-2998 colon
HCT-116 colon = test system: HCT-116 colon
HL-60(TB) leukemia = test system: HL-60(TB) leukemia
HOP-62 NSCLC = test system: HOP-62 NSCLC
HOP-92 NSCLC = test system: HOP-92 NSCLC
HT29 colon = test system: HT29 colon
IGROV1 ovarian = test system: IGROV1 ovarian
K-562 leukemia = test system: K-562 leukemia
KM12 colon = test system: KM12 colon
M14 melanoma = test system: M14 melanoma
MALME-3M melanoma = test system: MALME-3M melanoma
MCF7 breast = test system: MCF7 breast
MDA-MB-231 breast = test system: MDA-MB-231 breast
MDA-MB-435 melanoma = test system: MDA-MB-435 melanoma
MDA-MB-468 breast = test system: MDA-MB-468 breast
MOLT-4 leukemia = test system: MOLT-4 leukemia
NCI-H226 lung = test system: NCI-H226 lung
NCI-H23 lung = test system: NCI-H23 lung
NCI-H322M lung = test system: NCI-H322M lung
NCI-H522 lung = test system: NCI-H522 lung
NCI/ADR-RES ovarian = test system: NCI/ADR-RES ovarian
OVCAR-3 ovarian = test system: OVCAR-3 ovarian
OVCAR-4 ovarian = test system: OVCAR-4 ovarian
OVCAR-5 ovarian = test system: OVCAR-5 ovarian
OVCAR-8 ovarian = test system: OVCAR-8 ovarian
PC-3 prostate = test system: PC-3 prostate
RPMI-8226 leukemia = test system: RPMI-8226 leukemia
RXF 393 renal = test system: RXF 393 renal
SF-295 CNS = test system: SF-295 CNS
SK-MEL-2 melanoma = test system: SK-MEL-2 melanoma
SK-MEL-28 melanoma = test system: SK-MEL-28 melanoma
SK-MEL-5 melanoma = test system: SK-MEL-5 melanoma
SK-OV-3 ovarian = test system: SK-OV-3 ovarian
SNB-75 CNS = test system: SNB-75 CNS
SR leukemia = test system: SR leukemia
SW-620 colon = test system: SW-620 colon
T-47D breast = test system: T-47D breast
U251 glioblastoma = test system: U251 glioblastoma
UO-31 renal = test system: UO-31 renal

Which results are given for `c1cn2cc(-c3ccc4cn[nH]c4c3)nc(Nc3ccc(N4CCOCC4)cc3)c2n1`?
GI50 ([…]-0 renal): 8.76 µM; TGI (786-0 renal): 21.1 µM; GI50 (A498 renal): 3.26 µM; TGI (A498 renal): 16.6 µM; GI50 (ACHN renal): 10.7 µM; TGI (ACHN renal): 25.1 µM; GI50 (BT-549 breast): 11.2 µM; TGI (BT-549 breast): 23.5 µM; GI50 (CCRF-CEM leukemia): > 100 µM; TGI (CCRF-CEM leukemia): > 100 µM; GI50 (COLO 205 colon): 37.8 µM; TGI (COLO 205 colon): > 100 µM; GI50 (DU-145 prostate): 10 µM; TGI (DU-145 prostate): 22.7 µM; GI50 (EKVX NSCLC): 9.48 µM; TGI (EKVX NSCLC): 25.1 µM; GI50 (HCC-2998 colon): 17.5 µM; TGI (HCC-2998 colon): > 85.7 µM; GI50 (HCT-116 colon): 15 µM; TGI (HCT-116 colon): 34.3 µM; GI50 (HL-60(TB) leukemia): > 100 µM; TGI (HL-60(TB) leukemia): > 100 µM; GI50 (HOP-62 NSCLC): 9.54 µM; TGI (HOP-62 NSCLC): 22.2 µM; GI50 (HOP-92 NSCLC): 5.8 µM; TGI (HOP-92 NSCLC): 19.1 µM; GI50 (HT29 colon): 28.1 µM; TGI (HT29 colon): > 100 µM; GI50 (IGROV1 ovarian): 14.1 µM; TGI (IGROV1 ovarian): 37.9 µM; GI50 (K-562 leukemia): > 100 µM; TGI (K-562 leukemia): > 100 µM; GI50 (KM12 colon): 0.527 µM; TGI (KM12 colon): 25 µM; GI50 (M14 melanoma): 23.5 µM; TGI (M14 melanoma): 86.6 µM; GI50 (MALME-3M melanoma): 6.24 µM; TGI (MALME-3M melanoma): 19.4 µM; GI50 (MCF7 breast): 8.62 µM; TGI (MCF7 breast): 30.2 µM; GI50 (MDA-MB-231 breast): 10.1 µM; TGI (MDA-MB-231 breast): 21.9 µM; GI50 (MDA-MB-435 melanoma): 22.6 µM; TGI (MDA-MB-435 melanoma): > 75.5 µM; GI50 (MDA-MB-468 breast): 16.1 µM; TGI (MDA-MB-468 breast): 57.1 µM; GI50 (MOLT-4 leukemia): 48 µM; TGI (MOLT-4 leukemia): > 100 µM; GI50 (NCI-H226 lung): 9.38 µM; TGI (NCI-H226 lung): 23 µM; GI50 (NCI-H23 lung): 10.8 µM; TGI (NCI-H23 lung): 25.7 µM; GI50 (NCI-H322M lung): 12.3 µM; TGI (NCI-H322M lung): 37.5 µM; GI50 (NCI-H522 lung): 3.46 µM; TGI (NCI-H522 lung): 12.8 µM; GI50 (NCI/ADR-RES ovarian): 11.7 µM; TGI (NCI/ADR-RES ovarian): 29.6 µM; GI50 (OVCAR-3 ovarian): 12.7 µM; TGI (OVCAR-3 ovarian): 28.3 µM; GI50 (OVCAR-4 ovarian): 6.52 µM; TGI (OVCAR-4 ovarian): 20 µM; GI50 (OVCAR-5 ovarian): 12.8 µM; TGI (OVCAR-5 ovarian): 30.3 µM; GI50 (OVCAR-8 ovarian): 4.82 µM; TGI (OVCAR-8 ovarian): 17.1 µM; GI50 (PC-3 prostate): 14.1 µM; TGI (PC-3 prostate): 28.7 µM; GI50 (RPMI-8226 leukemia): 16.9 µM; TGI (RPMI-8226 leukemia): > 58.6 µM; GI50 (RXF 393 renal): 2.44 µM; TGI (RXF 393 renal): 13.3 µM; GI50 (SF-295 CNS): 13.7 µM; TGI (SF-295 CNS): 27.4 µM; GI50 (SK-MEL-2 melanoma): 1.67 µM; TGI (SK-MEL-2 melanoma): 8.99 µM; GI50 (SK-MEL-28 melanoma): 12.4 µM; TGI (SK-MEL-28 melanoma): 29.6 µM; GI50 (SK-MEL-5 melanoma): 11.3 µM; TGI (SK-MEL-5 melanoma): 32.8 µM; GI50 (SK-OV-3 ovarian): 5.35 µM; TGI (SK-OV-3 ovarian): 19.3 µM; GI50 (SNB-75 CNS): 2.15 µM; TGI (SNB-75 CNS): 9.11 µM; GI50 (SR leukemia): 5.01 µM; TGI (SR leukemia): 14.5 µM; GI50 (SW-620 colon): 33.1 µM; TGI (SW-620 colon): > 100 µM; GI50 (T-47D breast): 3.73 µM; TGI (T-47D breast): 21.2 µM; GI50 (U251 glioblastoma): 9.72 µM; TGI (U251 glioblastoma): 25.4 µM; GI50 (UO-31 renal): 12.4 µM; TGI (UO-31 renal): 32 µM

Which results are given for `C=CC(=O)N[C@H]1CCOC[C@H]1Nc1ncc2cc(-c3c(Cl)c(OC)cc(OC)c3Cl)ccc2n1`?
GI50 ([…]-0 renal): 16.5 µM; TGI (786-0 renal): 50.1 µM; GI50 (A498 renal): 10.6 µM; TGI (A498 renal): 40.2 µM; GI50 (ACHN renal): 30.6 µM; TGI (ACHN renal): > 100 µM; GI50 (BT-549 breast): 4.77 µM; TGI (BT-549 breast): 19.5 µM; GI50 (CCRF-CEM leukemia): 9.81 µM; TGI (CCRF-CEM leukemia): 22.2 µM; GI50 (COLO 205 colon): 18.2 µM; TGI (COLO 205 colon): 46.1 µM; GI50 (DU-145 prostate): 27.4 µM; TGI (DU-145 prostate): > 100 µM; GI50 (EKVX NSCLC): 12.3 µM; TGI (EKVX NSCLC): 39.6 µM; GI50 (HCC-2998 colon): 16.2 µM; TGI (HCC-2998 colon): 32.5 µM; GI50 (HCT-116 colon): 15.1 µM; TGI (HCT-116 colon): 33.6 µM; GI50 (HL-60(TB) leukemia): 9.62 µM; TGI (HL-60(TB) leukemia): 22.7 µM; GI50 (HOP-62 NSCLC): 20.4 µM; TGI (HOP-62 NSCLC): 57.2 µM; GI50 (HOP-92 NSCLC): 7.37 µM; TGI (HOP-92 NSCLC): 28.2 µM; GI50 (HT29 colon): 14 µM; TGI (HT29 colon): 96.2 µM; GI50 (IGROV1 ovarian): 17.9 µM; TGI (IGROV1 ovarian): 63.5 µM; GI50 (K-562 leukemia): 7.1 µM; TGI (K-562 leukemia): 26.9 µM; GI50 (KM12 colon): 19.2 µM; TGI (KM12 colon): 47.7 µM; GI50 (M14 melanoma): 16.8 µM; TGI (M14 melanoma): > 69.2 µM; GI50 (MALME-3M melanoma): > 53.7 µM; TGI (MALME-3M melanoma): > 100 µM; GI50 (MCF7 breast): 11.9 µM; TGI (MCF7 breast): 46.4 µM; GI50 (MDA-MB-231 breast): 9.96 µM; TGI (MDA-MB-231 breast): > 78.7 µM; GI50 (MDA-MB-435 melanoma): > 64.3 µM; TGI (MDA-MB-435 melanoma): > 100 µM; GI50 (MDA-MB-468 breast): 3.37 µM; TGI (MDA-MB-468 breast): 13.9 µM; GI50 (MOLT-4 leukemia): 2.59 µM; TGI (MOLT-4 leukemia): 14.8 µM; GI50 (NCI-H226 lung): 4.55 µM; TGI (NCI-H226 lung): 20.8 µM; GI50 (NCI-H23 lung): 16.9 µM; TGI (NCI-H23 lung): 63.9 µM; GI50 (NCI-H322M lung): 27.7 µM; TGI (NCI-H322M lung): > 100 µM; GI50 (NCI-H522 lung): 13.9 µM; TGI (NCI-H522 lung): 32.2 µM; GI50 (NCI/ADR-RES ovarian): 12.9 µM; TGI (NCI/ADR-RES ovarian): 30.8 µM; GI50 (OVCAR-3 ovarian): 13.9 µM; TGI (OVCAR-3 ovarian): 34 µM; GI50 (OVCAR-4 ovarian): 14.9 µM; TGI (OVCAR-4 ovarian): 54.1 µM; GI50 (OVCAR-5 ovarian): 27.5 µM; TGI (OVCAR-5 ovarian): > 88.4 µM; GI50 (OVCAR-8 ovarian): 16 µM; TGI (OVCAR-8 ovarian): 35.1 µM; GI50 (PC-3 prostate): 20.3 µM; TGI (PC-3 prostate): 66.2 µM; GI50 (RPMI-8226 leukemia): 4.12 µM; TGI (RPMI-8226 leukemia): 15 µM; GI50 (RXF 393 renal): 8.65 µM; TGI (RXF 393 renal): 26.2 µM; GI50 (SF-295 CNS): 28.1 µM; TGI (SF-295 CNS): > 86.7 µM; GI50 (SK-MEL-2 melanoma): 15.9 µM; TGI (SK-MEL-2 melanoma): 30.4 µM; GI50 (SK-MEL-28 melanoma): 35.6 µM; TGI (SK-MEL-28 melanoma): > 100 µM; GI50 (SK-MEL-5 melanoma): 10.9 µM; TGI (SK-MEL-5 melanoma): 23.6 µM; GI50 (SK-OV-3 ovarian): 19.4 µM; TGI (SK-OV-3 ovarian): 63.4 µM; GI50 (SNB-75 CNS): 6.99 µM; TGI (SNB-75 CNS): 33.5 µM; GI50 (SR leukemia): 5.39 µM; TGI (SR leukemia): 19 µM; GI50 (SW-620 colon): 19 µM; TGI (SW-620 colon): > 52.5 µM; GI50 (T-47D breast): 5.24 µM; TGI (T-47D breast): 23 µM; GI50 (U251 glioblastoma): 15 µM; TGI (U251 glioblastoma): 36.1 µM; GI50 (UO-31 renal): 23.3 µM; TGI (UO-31 renal): 98 µM
